US11000033B2, “Ketone or oxime compound, and herbicide” (NISSAN CHEMICAL CORPORATION, priority 2014, dated 2021)

Columns and labels:
Format in all cases: in vivo
Alopecurus myosuroides [1] = assay: Test Example 5: herbicidal effect by foliage application, plastic box (symbol J); conditions: 320 g/ha, 3 weeks after application
Method in brief: (§1)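 Effect is rated 3 weeks after a foliar spray of water-diluted emulsion concentrate at a predetermined herbicide amount. Plants had grown 14 days in a 25° C. to 30° C. greenhouse from seed in sterilized diluvial soil.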

rice = assay: Test Example 4: effect on crop by soil treatment (symbol b); conditions: application herbicide amount 320 g/ha
Method in brief: (§2)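 Greenhouse culture at 25° C. to 30° C. followed sowing of seed in spots on sterilized diluvial soil with a soil cover close to 1.5 cm thick.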

transplanted rice plant = assay: Test Example 1: effect on crop, application before weed generation in submerged conditions (symbol a); conditions: application herbicide amount 320 g/ha
Method in brief: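 Alluvial soil pots flooded to 4 cm water, sown with Echinochloa oryzacola, Scirpus juncoides and Monochoria vaginalis, then transplanted with 2.5 leaf stage rice seedlings; pre-emergence application. Greenhouse 25° C. to 30° C.; scored 0–5 by herbicidal ratio 3 weeks after application.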

wheat = assay: Test Example 4: effect on crop by soil treatment (symbol e); conditions: application herbicide amount 320 g/ha
Method in brief: as §2

soybean = assay: Test Example 4: effect on crop by soil treatment (symbol d); conditions: application herbicide amount 320 g/ha
Method in brief: as §2

Alopecurus myosuroides [2] = assay: Test Example 4: herbicidal effect by soil treatment (symbol J); conditions: application herbicide amount 320 g/ha
Method in brief: (§3)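 Seeds were sown in sterilized diluvial soil, covered with about 1.5 cm of soil, and the soil surface was sprayed with a water-diluted emulsion of the compound at a predetermined rate. Plants grew in a greenhouse at 25° C. to 30° C.; effects were scored visually 3 weeks after application.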

[3] = system: Echinochloa crus-galli var. crus-galli; assay: Test Example 5: herbicidal effect by foliage application, plastic box (symbol H); conditions: 320 g/ha, 3 weeks after application
Method in brief: as §1

Scirpus juncoides = assay: Test Example 1: herbicidal activity, application before weed generation in submerged conditions (symbol B); conditions: application herbicide amount 320 g/ha
Method in brief: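 Ratings (5: ≥90%, near complete withering; 4: 70–<90%; 3: 40–<70%; 2: 20–<40%; 1: 5–<20%; 0: ≤5%) were assigned 3 weeks after the diluted emulsion was applied to the water surface of freshly sown, submerged pots.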

Lolium multiflorum Lam. = assay: Test Example 4: herbicidal effect by soil treatment (symbol K); conditions: application herbicide amount 320 g/ha
Method in brief: as §3

corn = assay: Test Example 5: effect on crop by foliage application, plastic box (symbol c); conditions: 320 g/ha, 3 weeks after application
Method in brief: (§4)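 In a plastic box 7 cm deep filled with sterilized diluvial soil, seeds of crops and weeds such as Digitaria ciliaris, Avena fatua and Amaranthus retroflexus are sown in spots and covered with about 1.5 cm of soil before greenhouse growth at 25–30° C.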

Monochoria vaginalis = assay: Test Example 2: herbicidal activity, application during weed generation in submerged conditions (symbol C); conditions: Table 23; application herbicide amount 320 g/ha; grade 0-5 by criteria of Test Example 1
Method in brief: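 Submerged alluvial soil (4 cm) sown with mixed seed; greenhouse 25–30° C. 1–2 leaf: diluted emulsion onto water surface, preset dose. Visual score, 3 wk.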

Digitaria ciliaris = assay: Test Example 5: herbicidal effect by foliage application, plastic box (symbol F); conditions: 320 g/ha, 3 weeks after application
Method in brief: as §1

rapeseed = assay: Test Example 5: effect on crop by foliage application, plastic box (symbol g); conditions: 320 g/ha, 3 weeks after application
Method in brief: as §4

Galium spurium = assay: Test Example 5: herbicidal effect by foliage application, plastic box (symbol Q); conditions: 320 g/ha, 3 weeks after application
Method in brief: as §1

Compound	J: Alopecurus myosuroides, herbicidal effect grade (Alopecurus myosuroides [1])	b (directly sowed rice plant) effect on crop grade (rice)	Effect grade on crop, a: transplanted rice plant (transplanted rice plant)	e (wheat) effect on crop grade (wheat)	d (soybean) effect on crop grade (soybean)	J (Alopecurus myosuroides) herbicidal effect grade (Alopecurus myosuroides [2])	H: Echinochloa crus-galli var. crus-galli, herbicidal effect grade [3]	Herbicidal effect grade, B: Scirpus juncoides (Scirpus juncoides)	K (Lolium multiflorum Lam.) herbicidal effect grade (Lolium multiflorum Lam.)	c: corn, effect on crop grade (corn)	Herbicidal effect grade, C: Monochoria vaginalis (Monochoria vaginalis)	F: Digitaria ciliaris, herbicidal effect grade (Digitaria ciliaris)	g: rapeseed, effect on crop grade (rapeseed)	Q: Galium spurium, herbicidal effect grade (Galium spurium)	Effect on crop grade, b: directly sowed rice plant (rice)	Effect on crop grade, e: wheat (wheat)	Effect on crop grade, d: soybean (soybean)	Herbicidal effect grade, J: Alopecurus myosuroides (Alopecurus myosuroides [2])	Herbicidal effect grade, K: Lolium multiflorum Lam. (Lolium multiflorum Lam.)
CON=C(C)CC1CC(OCC#C[Si](C)(C)C)=C(c2c(C)cc(C)cc2C)C1=O (stereo not drawn) [1-031]	3 (Herbicidal ratio of 40% or higher and lower than 70%)	0 (Herbicidal ratio of 5% or lower (almost no effect))	0 (Herbicidal ratio of 5% or lower (almost no effect))	0 (Herbicidal ratio of 5% or lower (almost no effect))	0 (Herbicidal ratio of 5% or lower (almost no effect))	0 (Herbicidal ratio of 5% or lower (almost no effect))	1 (Herbicidal ratio of 5% or higher and lower than 20%)	4 (Herbicidal ratio of 70% or higher and lower than 90%)	0 (Herbicidal ratio of 5% or lower (almost no effect))	0 (Herbicidal ratio of 5% or lower (almost no effect))	0 (Herbicidal ratio of 5% or lower (almost no effect))	1 (Herbicidal ratio of 5% or higher and lower than 20%)	3 (Herbicidal ratio of 40% or higher and lower than 70%)	0 (Herbicidal ratio of 5% or lower (almost no effect))					
CON=C(C)CC1CC(OC)=C(c2c(C)cc(C)cc2C)C1=O (stereo not drawn) [1-001, 2-mesityl-3-methoxy-5-{2-(methoxyimino)propyl}cyclopent-2-enone]	0 (Herbicidal ratio of 5% or lower (almost no effect))	0 (Herbicidal ratio of 5% or lower (almost no effect))	0 (Herbicidal ratio of 5% or lower (almost no effect))	0 (Herbicidal ratio of 5% or lower (almost no effect))	0 (Herbicidal ratio of 5% or lower (almost no effect))	0 (Herbicidal ratio of 5% or lower (almost no effect))	0 (Herbicidal ratio of 5% or lower (almost no effect))	0 (Herbicidal ratio of 5% or lower (almost no effect))	0 (Herbicidal ratio of 5% or lower (almost no effect))	0 (Herbicidal ratio of 5% or lower (almost no effect))	0 (Herbicidal ratio of 5% or lower (almost no effect))	0 (Herbicidal ratio of 5% or lower (almost no effect))	0 (Herbicidal ratio of 5% or lower (almost no effect))	0 (Herbicidal ratio of 5% or lower (almost no effect))					
CON=C(C)CC1CC(OC(=O)C(C)Cl)=C(c2c(C)cc(C)cc2C)C1=O (stereo not drawn) [1-042]	5 (Herbicidal ratio of 90% or more (almost completely withered))	5 (Herbicidal ratio of 90% or more (almost completely withered))	5 (Herbicidal ratio of 90% or more (almost completely withered))	1 (Herbicidal ratio of 5% or higher and lower than 20%)	0 (Herbicidal ratio of 5% or lower (almost no effect))	5 (Herbicidal ratio of 90% or more (almost completely withered))	5 (Herbicidal ratio of 90% or more (almost completely withered))	5 (Herbicidal ratio of 90% or more (almost completely withered))	5 (Herbicidal ratio of 90% or more (almost completely withered))	4 (Herbicidal ratio of 70% or higher and lower than 90%)	3 (Herbicidal ratio of 40% or higher and lower than 70%)	5 (Herbicidal ratio of 90% or more (almost completely withered))	4 (Herbicidal ratio of 70% or higher and lower than 90%)	0 (Herbicidal ratio of 5% or lower (almost no effect))					
CON=C(C)CC1CC(OC(=O)COc2ccccc2OC)=C(c2c(C)cc(C)cc2C)C1=O (stereo not drawn) [1-067]	5 (Herbicidal ratio of 90% or more (almost completely withered))	5 (Herbicidal ratio of 90% or more (almost completely withered))	5 (Herbicidal ratio of 90% or more (almost completely withered))	5 (Herbicidal ratio of 90% or more (almost completely withered))	0 (Herbicidal ratio of 5% or lower (almost no effect))	5 (Herbicidal ratio of 90% or more (almost completely withered))	5 (Herbicidal ratio of 90% or more (almost completely withered))	5 (Herbicidal ratio of 90% or more (almost completely withered))	5 (Herbicidal ratio of 90% or more (almost completely withered))	5 (Herbicidal ratio of 90% or more (almost completely withered))	2 (Herbicidal ratio of 20% or higher and lower than 40%)	5 (Herbicidal ratio of 90% or more (almost completely withered))	4 (Herbicidal ratio of 70% or higher and lower than 90%)	2 (Herbicidal ratio of 20% or higher and lower than 40%)					
CON=C(CC1CC(O)=C(c2c(C)cc(C#C[Si](C)(C)C)cc2C)C1=O)C(C)C (stereo not drawn) [9-005]	4 (Herbicidal ratio of 70% or higher and lower than 90%)		4 (Herbicidal ratio of 70% or higher and lower than 90%)				5 (Herbicidal ratio of 90% or more (almost completely withered))	0 (Herbicidal ratio of 5% or lower (almost no effect))		3 (Herbicidal ratio of 40% or higher and lower than 70%)	0 (Herbicidal ratio of 5% or lower (almost no effect))	4 (Herbicidal ratio of 70% or higher and lower than 90%)	3 (Herbicidal ratio of 40% or higher and lower than 70%)	0 (Herbicidal ratio of 5% or lower (almost no effect))	1 (Herbicidal ratio of 5% or higher and lower than 20%)	0 (Herbicidal ratio of 5% or lower (almost no effect))	0 (Herbicidal ratio of 5% or lower (almost no effect))	1 (Herbicidal ratio of 5% or higher and lower than 20%)	4 (Herbicidal ratio of 70% or higher and lower than 90%)
CON=C(C)CC1CC(OC(=O)COc2ccc(C)cc2)=C(c2c(C)cc(C)cc2C)C1=O (stereo not drawn) [1-072]	5 (Herbicidal ratio of 90% or more (almost completely withered))	5 (Herbicidal ratio of 90% or more (almost completely withered))	5 (Herbicidal ratio of 90% or more (almost completely withered))	4 (Herbicidal ratio of 70% or higher and lower than 90%)	0 (Herbicidal ratio of 5% or lower (almost no effect))	5 (Herbicidal ratio of 90% or more (almost completely withered))	5 (Herbicidal ratio of 90% or more (almost completely withered))	4 (Herbicidal ratio of 70% or higher and lower than 90%)	5 (Herbicidal ratio of 90% or more (almost completely withered))	5 (Herbicidal ratio of 90% or more (almost completely withered))	0 (Herbicidal ratio of 5% or lower (almost no effect))	5 (Herbicidal ratio of 90% or more (almost completely withered))	4 (Herbicidal ratio of 70% or higher and lower than 90%)	2 (Herbicidal ratio of 20% or higher and lower than 40%)					
